Here are results for ten compounds from US11040035B2, “3-oxo-2,6-diphenyl-2,3-dihydropyridazine-4-carboxamides” (BAYER PHARMA AKTIENGESELLSCHAFT, priority 2016, dated 2021).

Test [1] concerns the target T1, AHR (Homo sapiens, UniProt P35869).
T1 sequence (P35869 11-848): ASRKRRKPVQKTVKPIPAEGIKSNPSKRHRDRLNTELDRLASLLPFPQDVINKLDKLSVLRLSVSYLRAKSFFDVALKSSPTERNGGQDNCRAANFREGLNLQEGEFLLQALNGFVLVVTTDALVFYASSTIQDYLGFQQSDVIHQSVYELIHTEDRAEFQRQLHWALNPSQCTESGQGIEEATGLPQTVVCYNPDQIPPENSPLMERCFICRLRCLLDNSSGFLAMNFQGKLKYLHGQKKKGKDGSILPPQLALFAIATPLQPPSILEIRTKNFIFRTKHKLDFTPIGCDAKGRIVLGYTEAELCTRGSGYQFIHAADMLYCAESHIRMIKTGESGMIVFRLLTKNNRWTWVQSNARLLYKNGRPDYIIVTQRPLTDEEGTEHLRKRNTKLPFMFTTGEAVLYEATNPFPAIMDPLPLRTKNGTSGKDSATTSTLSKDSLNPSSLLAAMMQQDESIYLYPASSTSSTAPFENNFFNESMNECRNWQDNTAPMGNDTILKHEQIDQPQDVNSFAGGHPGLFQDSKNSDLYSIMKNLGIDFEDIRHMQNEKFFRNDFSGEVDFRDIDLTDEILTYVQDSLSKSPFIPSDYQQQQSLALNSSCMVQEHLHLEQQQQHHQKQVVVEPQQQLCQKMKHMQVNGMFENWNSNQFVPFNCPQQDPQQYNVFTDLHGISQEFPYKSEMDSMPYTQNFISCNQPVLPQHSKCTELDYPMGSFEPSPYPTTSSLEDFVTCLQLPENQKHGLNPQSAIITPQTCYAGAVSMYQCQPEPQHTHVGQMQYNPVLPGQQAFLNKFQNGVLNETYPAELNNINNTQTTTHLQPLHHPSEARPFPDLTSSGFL
The test is described as follows: In vitro assay 2: agonism in human cell line (transactivation assay).
Description: Transactivation Assay in Human Cell Line (In Vitro Assays 1 and 2)
Transactivation assays were carried out in U87 glioblastoma cells (ATCC) endogenously expressing AHR. In addition the cells were stably transfected with an AHR inducible firefly luciferase reporter gene construct that carried AHR-binding sites (DRE) in its promoter and a renilla reporter gene construct with constitutively active promoter.
In Vitro Assay 2: Agonism in Human Cell Line
Cells in medium (tryptophan free RPMI, 1% FCS, 2 mM Glutamine) were grown for 20 hours in absence (negative control) or presence of increasing concentrations of test compounds (typical dilutions: 72 pmol/L, 0.25 nmol/L, 0.89 nmol/L; 3.1 nmol/L, 11 nmol/L, 38 nmol/L, 130 nmol/L, 470 nmol/L, 1.6 μmol/L, 5.7 μmol/L and 20 μmol/L in duplicates). As positive activation control cells were incubated with 300 μM kynurenic acid. Normalization was done by positive and negative controls.
Firefly luciferase activity was determined by the SteadyGlo Luciferase Assay System (Promega, #2520).

For test [2], the target named is T1, AHR. In words: In vitro assay 1: antagonism in human cell line (transactivation assay, kynurenic acid prestimulated). Particulars: Assay 1: AHR-luc Hum Antagonism IC50 [M], 150 μM kynurenic acid, 20 hours, firefly luciferase.
Setting [3] is: Assay 2: AHR-luc Hum Agonism IC50 [M], no kynurenic acid, 20 hours, firefly luciferase.
[4] abbreviates: read-out: Assay 2: AHR-luc Hum Agonism IC50, no kynurenic acid, 20 hours, firefly luciferase.

Molecules are shown by their SMILES.

On to `CN1C[C@H](O)[C@H](NC(=O)c2cc(-c3ccc(Cl)cc3)nn(-c3cccc(F)c3)c2=O)C1` (relative stereo) [Example 388, 6-(4-chlorophenyl)-2-(3-fluorophenyl)-N-[cis-4-hydroxy-1-methylpyrrolidin-3-yl]-3-oxo-2,3-dihydropyridazine-4-carboxamide], for which the results for the IC50 against AHR [1] (setting [3]) and on AHR [2] were greater than 2e-05 M and 6.9e-07 M, respectively.

Regarding `O=C(NC(CO)C1CC1)c1cc(-c2ccc(C(F)(F)F)cc2)nn(-c2cccc(F)c2)c1=O` (single isomer, unassigned; (-)) [Example 351, (−)-N-(1-cyclopropyl-2-hydroxyethyl)-2-(3-fluorophenyl)-3-oxo-6-[4-(trifluoromethyl)phenyl]-2,3-dihydropyridazine-4-carboxamide], the IC50 (commonly the concentration that gives 50% inhibition) is greater than 2e-05 M against AHR [1] (setting [3]) and 4.84e-09 M at AHR [2].

Turning to `COc1ccc(-c2cc(C(=O)N[C@H](CO)C(C)C)c(=O)n(-c3cccc(F)c3)n2)cc1` [Example 113, 2-(3-Fluorophenyl)-N-[(2S)-1-hydroxy-3-methylbutan-2-yl]-6-(4-methoxyphenyl)-3-oxo-2,3-dihydropyridazine-4-carboxamide], the values for the IC50 on AHR [1] (setting [3]) and at AHR [2] were greater than 2e-05 M and 1.8e-08 M, respectively.

Regarding `CC(NC(=O)c1cc(-c2ccc(C(F)(F)F)cc2)nn(-c2cccc(F)c2)c1=O)C(O)C(F)(F)F` (single isomer, unassigned) [Example 269, Isomer no. 2 of 2-(3-fluorophenyl)-3-oxo-N-(4,4,4-trifluoro-3-hydroxybutan-2-yl)-6-[4-(trifluoromethyl)phenyl]-2,3-dihydropyridazine-4-carboxamide], the values for the IC50 on AHR [1] (setting [3]) and on AHR [2] were 3.85e-09 M and greater than 2e-05 M, respectively.

Take `O=C(NC(CO)C1CCOC1)c1cc(-c2ccc(Cl)c(F)c2)nn(-c2cccc(F)c2)c1=O` (centres unmarked) [Example 287, 6-(4-Chloro-3-fluorophenyl)-2-(3-fluorophenyl)-N-[2-hydroxy-1-[-tetrahydrofuran-3-yl]ethyl]-3-oxo-2,3-dihydropyridazine-4-carboxamide]: the IC50 on AHR [1] (setting [3]) was greater than 2e-05 M; against AHR [2] it was 1.29e-07 M.

With `CC(CO)CNC(=O)c1cc(-c2ccc(Cl)cc2)nn(-c2cccc(F)c2)c1=O` (racemic) [Example 200, 6-(4-Chlorophenyl)-2-(3-fluorophenyl)-N-[(2RS)-3-hydroxy-2-methylpropyl]-3-oxo-2,3-dihydropyridazine-4-carboxamide], the IC50 on AHR [1] (setting [3]) was greater than 2e-05 M; at AHR [2], 7.5e-08 M.

As for `O=C(NC[C@H](O)C(F)(F)F)c1cc(-c2ccc(CF)cc2)nn(-c2cccc(F)c2)c1=O` [Example 397, 6-[4-(fluoromethyl)phenyl]-2-(3-fluorophenyl)-3-oxo-N-[(2S)-3,3,3-trifluoro-2-hydroxypropyl]-2,3-dihydropyridazine-4-carboxamide], the values for the IC50 against AHR [1] (setting [3]) and on AHR [2] were greater than 2e-05 M and 1.8e-07 M, respectively.

In the case of `CC(NC(=O)c1cc(-c2ccc(Cl)cc2)nn(-c2cccc(F)c2)c1=O)C(O)CO` (single isomer, unassigned) [Example 360, 6-(4-chlorophenyl)-N-(3,4-dihydroxybutan-2-yl)-2-(3-fluorophenyl)-3-oxo-2,3-dihydropyridazine-4-carboxamide], the IC50 at AHR [1] (setting [4]) is greater than 2e-05 M; against AHR [2], 1.39e-08 M.

In the case of `O=C(NC(CO)C1CCOCC1)c1cc(-c2ccc(Cl)cc2)nn(-c2cccc(F)c2)c1=O` (single isomer, unassigned) [Example 151, 6-(4-Chlorophenyl)-2-(3-fluorophenyl)-N-[2-hydroxy-1-(tetrahydro-2H-pyran-4-yl)ethyl]-3-oxo-2,3-dihydropyridazine-4-carboxamide], the IC50 was greater than 2e-05 M at AHR [1] (setting [4]) and 1.24e-07 M on AHR [2].

Regarding `O=C(NC(CO)C1CCOC1)c1cc(-c2ccc(Cl)c(Cl)c2)nn(-c2cccc(F)c2)c1=O` (centres unmarked) [Example 307, 6-(3,4-Dichlorophenyl)-2-(3-fluorophenyl)-N-[2-hydroxy-1-(tetrahydrofuran-3-yl)ethyl]-3-oxo-2,3-dihydropyridazine-4-carboxamide], the IC50 against AHR [1] (setting [3]) was greater than 2e-05 M; at AHR [2], 2.22e-07 M.
